Test results: ChEMBL document CHEMBL1158148, “Characterization of an irritant 4-deoxyphorbol diester from Euphorbia tirucalli” (J Nat Prod, 1979)

Experiments:
[1] = species: Mus musculus; assay: Toxicity against Swiss-Webster mouse assessed as irritation in ear per 5 ul after 4 hrs; type: organism-based; conditions: in vivo, topical_or_ocular
[2] = species: Mus musculus; assay: Toxicity against Swiss-Webster mouse assessed as irritation in ear per 5 ul after 24 hrs; type: organism-based; conditions: in vivo, topical_or_ocular

Compound	ID50 [1] [µg]	ID50 [2] [µg]
CCCCCCCCCCCCCC(=O)O[C@@H]1[C@@H](C)[C@@]2(O)[C@@H](C=C(CO)C[C@]3(O)C(=O)C(C)=C[C@@H]23)[C@@H]2C(C)(C)[C@]12OC(C)=O [PHORBOL MYRISTATE ACETATE]	0.04	0.05
CCC/C=C/C=C\C(=O)O[C@@H]1[C@@H](C)[C@]2(O)[C@@H]3C=C(C)C(=O)[C@@H]3CC(CO)=C[C@H]2[C@@H]2C(C)(C)[C@]12O	> 100	> 100
CC1=C[C@H]2[C@@]3(O)[C@H](C)[C@@H](OC(=O)c4ccccc4)[C@]4(OC(=O)c5ccccc5)[C@H]([C@@H]3C=C(CO)C[C@]2(O)C1=O)C4(C)C	0.6	0.83
CCC/C=C/C=C\C(=O)O[C@@H]1[C@@H](C)[C@]2(O)[C@@H]3C=C(C)C(=O)[C@H]3CC(CO)=C[C@H]2[C@@H]2C(C)(C)[C@]12OC(C)=O	0.04	0.07
